US20250215016A1, “ISOXAZOLE-HETEROCYCLIC DERIVATIVE, PHARMACEUTICAL COMPOSITION AND USE” (SHANGHAI SIMR BIOTECHNOLOGY CO., LTD, priority 2022, published 2025)

target: α5-GABAA receptor (Homo sapiens (Human), UniProt P18507+P31644); test: Whole-cell patch clamp electrophysiology, inverse regulation activity in α5β3γ2-HEK293 cells; type: cell-based; conditions: compound 100 nM; GABA 0.05-0.06 μM (about EC7-8); clamped at −60 mV; read-out: Inverse regulation efficiency to α5-GABAA receptor
Outline: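 HEK293 cells expressing α5β3γ2 recorded whole-cell at −60 mV holding potential, GABA 0.05-0.06 μM (about EC7-8) applied, then compound at 100 nM final with GABA. pH 7.4 extracellular, CsCl-based pipette solution. Inverse regulation efficiency = (Itreatment−Igaba)/(Igaba−Iprebaseline)×100%.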

Sequence of α5-GABAA receptor (P31644 32-462): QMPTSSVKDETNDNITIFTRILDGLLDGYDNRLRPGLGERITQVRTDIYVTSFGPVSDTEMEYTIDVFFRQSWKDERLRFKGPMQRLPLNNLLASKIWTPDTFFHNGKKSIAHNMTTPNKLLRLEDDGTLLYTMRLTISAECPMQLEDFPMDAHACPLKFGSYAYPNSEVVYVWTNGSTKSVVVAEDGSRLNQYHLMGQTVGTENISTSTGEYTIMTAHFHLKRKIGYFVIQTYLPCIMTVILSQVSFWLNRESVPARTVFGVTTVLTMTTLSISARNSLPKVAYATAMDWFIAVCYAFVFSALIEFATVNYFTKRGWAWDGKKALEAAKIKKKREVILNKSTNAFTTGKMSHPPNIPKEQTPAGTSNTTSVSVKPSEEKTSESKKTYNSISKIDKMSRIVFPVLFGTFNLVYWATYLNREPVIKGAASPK
Sequence of α5-GABAA receptor (P28472 26-473 partner): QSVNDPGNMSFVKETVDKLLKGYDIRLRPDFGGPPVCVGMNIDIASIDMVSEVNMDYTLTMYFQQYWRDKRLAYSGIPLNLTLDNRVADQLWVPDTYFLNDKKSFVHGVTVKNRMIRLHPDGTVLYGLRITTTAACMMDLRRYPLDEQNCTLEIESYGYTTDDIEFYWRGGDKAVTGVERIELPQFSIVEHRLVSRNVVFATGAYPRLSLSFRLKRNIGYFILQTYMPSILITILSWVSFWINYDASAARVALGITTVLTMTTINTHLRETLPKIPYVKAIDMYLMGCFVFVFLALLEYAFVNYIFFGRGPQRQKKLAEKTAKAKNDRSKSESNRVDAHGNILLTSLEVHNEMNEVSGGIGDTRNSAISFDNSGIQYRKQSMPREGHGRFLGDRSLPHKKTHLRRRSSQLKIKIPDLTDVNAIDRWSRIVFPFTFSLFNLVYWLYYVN
Sequence of α5-GABAA receptor (P18507 other isoform, or with tags, fused parts or gaps): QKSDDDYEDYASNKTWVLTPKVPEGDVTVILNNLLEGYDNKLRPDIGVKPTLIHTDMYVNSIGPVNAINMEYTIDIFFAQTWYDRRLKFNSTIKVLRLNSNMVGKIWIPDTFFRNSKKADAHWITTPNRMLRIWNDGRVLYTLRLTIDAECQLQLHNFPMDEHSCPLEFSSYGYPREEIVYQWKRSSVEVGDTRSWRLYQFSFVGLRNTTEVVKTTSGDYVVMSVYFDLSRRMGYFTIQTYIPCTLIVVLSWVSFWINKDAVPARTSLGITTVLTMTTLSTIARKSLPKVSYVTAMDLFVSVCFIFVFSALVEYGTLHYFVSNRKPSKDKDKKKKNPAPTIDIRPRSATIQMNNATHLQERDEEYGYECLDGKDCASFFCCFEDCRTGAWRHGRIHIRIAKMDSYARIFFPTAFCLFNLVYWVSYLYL

Row | SMILES | inhibition at 0.1 µM
1 | Cc1onc(-c2ccc(F)cc2)c1COc1ccc(-c2nnc3n2CCS(=O)(=O)C3)cn1 [Compound 7, 3-(6-((3-(4-fluorophenyl)-5-methylisoxazol-4-yl)methoxy)pyridin-3-yl)-5,6-dihydro-8H-[1,2,4]triazolo[3,4-c][1,4]thiazine 7,7-dioxide] | 37%
2 | Cc1onc(-c2ccc(F)cc2)c1COc1ccc(N2CCN3CCNC(=O)C3C2)nn1 (centres unmarked) [Compound 10, 8-(6-((3-(4-fluorophenyl)-5-methylisoxazol-4-yl)methoxy)pyridazin-3-yl) hexahydro-2H-pyrazino[1,2-a]pyrazin-1 (6H)-one] | 66%
3 | Cc1onc(-c2ccc(F)cc2)c1COc1ccc(N2CCn3ccnc3C2=O)nn1 [Compound 37, 7-(6-((3-(4-fluorophenyl)-5-methylisoxazol-4-yl)methoxy)pyridazin-3-yl)-6,7-dihydroimidazo[1,2-a]pyrazin-8(5H)-one] | 54%
4 | Cc1onc(-c2ccc(F)cc2)c1COc1ccc(-c2cc3n(c(=O)n2)C[C@]24CO[C@H](CN32)C4)cn1 [Compound 38] | 56%
5 | Cc1onc(-c2ccc(F)cc2)c1COc1ccc(-c2cc3n(c(=O)n2)CCN3C)cn1 [Compound 41, 7-(6-((3-(4-fluorophenyl)-5-methylisoxazol-4-yl)methoxy)pyridin-3-yl)-1-methyl-2,3-dihydroimidazo[1,2-c]pyrimidin-5(1H)-one] | 47%

More lines, now with the values ahead:

Row | inhibition at 0.1 µM | SMILES
6 | 49% | Cc1onc(-c2ccc(F)cc2)c1COc1ccc(-c2nnc3n2CCOC3)cn1 [Compound 17, 3-(6-((3-(4-fluorophenyl)-5-methylisoxazol-4-yl)methoxy)pyridin-3-yl)-5,6-dihydro-8H-[1,2,4]triazolo[3,4-c][1,4]oxazine]
7 | 57% | Cc1onc(-c2ccc(F)cc2)c1COc1ccc(-c2nnc3n2CCOC3)nn1 [Compound 18, 3-(6-((3-(4-fluorophenyl)-5-methylisoxazol-4-yl)methoxy)pyridazin-3-yl)-5,6-dihydro-8H-[1,2,4]triazolo[3,4-c][1,4]oxazine]
8 | 54% | Cc1onc(-c2ccc(F)cc2)c1COc1cnc(-c2nnc3n2CCOC3)cn1 [Compound 19, 3-(5-((3-(4-fluorophenyl)-5-methylisoxazol-4-yl)methoxy)pyrazin-2-yl)-5,6-dihydro-8H-[1,2,4]triazolo[3,4-c][1,4]oxazine]
9 | 45% | Cc1onc(-c2ccc(F)cc2)c1COc1cnc(-c2nnc3n2CCC3)cn1 [Compound 23, 4-(((5-(6,7-dihydro-5H-pyrrolo[2,1-c][1,2,4]triazol-3-yl)pyrazin-2-yl)oxy)methyl)-3-(4-fluorophenyl)-5-methylisoxazole]
10 | 44% | Cc1onc(-c2ccc(F)cc2)c1COc1cnc(-c2nnc3n2CCCOC3)cn1 [Compound 24, 3-(5-((3-(4-fluorophenyl)-5-methylisoxazol-4-yl)methoxy)pyrazin-2-yl)-6,7-dihydro-5H,9H-[1,2,4]triazolo[3,4-c][1,4]oxazepane]
11 | 48% | Cc1onc(-c2ccc(F)cc2)c1COc1cnc(-c2nnc3n2CCOCC3)cn1 [Compound 33, 3-(5-((3-(4-fluorophenyl)-5-methylisoxazol-4-yl)methoxy)pyrazin-2-yl)-5,6,8,9-tetrahydro-[1,2,4]triazolo[4,3-d][1,4]oxazepane]
